Data taken from patent US5770617A, “Terbenzimidazoles useful as antifungal agents” (Rutgers, The State University of New Jersey, priority 1997, dated 1998).
Entries after “also recorded” stand apart in the source; their conditions may differ.

Target: T1, Aspergillus topoisomerase I (Aspergillus nidulans, UniProt Q5BGS7)
T1 construct: about 105 kDa by phosphate transfer
T1 sequence (Q5BGS7 1-871): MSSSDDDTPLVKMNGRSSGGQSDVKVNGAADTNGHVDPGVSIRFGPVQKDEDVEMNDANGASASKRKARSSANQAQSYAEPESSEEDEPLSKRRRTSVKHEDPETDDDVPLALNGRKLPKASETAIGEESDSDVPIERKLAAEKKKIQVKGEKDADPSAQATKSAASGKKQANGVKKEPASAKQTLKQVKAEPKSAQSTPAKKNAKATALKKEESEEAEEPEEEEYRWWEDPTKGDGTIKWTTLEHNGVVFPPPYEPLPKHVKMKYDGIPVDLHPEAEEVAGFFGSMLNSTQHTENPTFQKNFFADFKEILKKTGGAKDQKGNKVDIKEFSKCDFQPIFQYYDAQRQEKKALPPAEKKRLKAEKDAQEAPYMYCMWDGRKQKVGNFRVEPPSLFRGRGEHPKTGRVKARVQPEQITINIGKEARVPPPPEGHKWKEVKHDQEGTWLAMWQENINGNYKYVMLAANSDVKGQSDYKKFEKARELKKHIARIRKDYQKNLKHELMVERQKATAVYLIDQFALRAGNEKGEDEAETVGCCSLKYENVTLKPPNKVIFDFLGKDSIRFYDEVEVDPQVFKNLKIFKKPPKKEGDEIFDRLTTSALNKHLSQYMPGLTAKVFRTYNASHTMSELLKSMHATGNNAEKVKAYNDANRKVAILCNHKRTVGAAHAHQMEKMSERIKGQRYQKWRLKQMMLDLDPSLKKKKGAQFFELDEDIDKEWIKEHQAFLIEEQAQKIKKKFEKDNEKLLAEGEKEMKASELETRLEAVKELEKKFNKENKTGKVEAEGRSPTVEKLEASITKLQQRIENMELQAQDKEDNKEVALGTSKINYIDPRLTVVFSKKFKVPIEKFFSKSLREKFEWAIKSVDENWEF
Assay: Topoisomerase I cleavage assay, Aspergillus enzyme
Assay type: biochemical
Settings: for inhibition (poisoning) of Aspergillus topoisomerase I, in words: DNA cleavage assay; for sensitivity of Aspergillus versus human topoisomerase I: cleavage assay, Aspergillus 60 units/reaction, human 150 units/reaction; for concentration at which extensive DNA cleavage was observed: DNA cleavage with Aspergillus topoisomerase I

## c1ccc(-c2ccc3[nH]c(-c4ccc5[nH]c(-c6ccc7[nH]cnc7c6)nc5c4)nc3c2)cc1 [Compound 13, 5-Phenyl-2-[2'(benzimidazol-5"-yl)benzimidazol-5'-yl]benzimidazole]
  inhibition (poisoning) of Aspergillus topoisomerase I, in words: strongly inhibited (poisoned); also recorded: sensitive
  sensitivity of Aspergillus versus human topoisomerase I: substantially more sensitive

## N#Cc1ccc2[nH]c(-c3ccc4[nH]c(-c5ccc6[nH]cnc6c5)nc4c3)nc2c1 [Compound 11, 5-Cyano-2-[2'-(benzimidazol-5"-yl)benzimidazol-5'-yl]benzimidazole]
  inhibition (poisoning) of Aspergillus topoisomerase I, in words: strongly inhibited (poisoned); also recorded: sensitive
  sensitivity of Aspergillus versus human topoisomerase I: more active against the Aspergillus than the human enzyme

## CCOc1ccc(-c2nc3cc(-c4nc5cc(N6CCN(C)CC6)ccc5[nH]4)ccc3[nH]2)cc1 [Hoechst 33342, 2'-(4-ethoxyphenyl)-5-(4-methyl-1-piperazinyl)-2,5'-bi-1H-benzimidazole]
Listed as Ho33342
  inhibition (poisoning) of Aspergillus topoisomerase I, in words: potent inhibitors; also recorded: selective sensitivity; also recorded: sensitive
  concentration at which extensive DNA cleavage was observed: ≤ 0.1 mg/mL
Ho33342 10 mg/ml
  topoisomerase I-mediated DNA cleavage at the highest concentration: dramatically inhibited

## CC[C@@]1(O)C(=O)OCc2c1cc1n(c2=O)Cc2cc3ccccc3nc2-1 [camptothecin]
  inhibition (poisoning) of Aspergillus topoisomerase I, in words: potent inhibitors; also recorded: sensitive
  concentration at which extensive DNA cleavage was observed: ≤ 1.0 mg/mL
  sensitivity of Aspergillus versus human topoisomerase I: less active against the Aspergillus than the human enzyme
Listed as CPT
  sensitivity of Aspergillus versus human topoisomerase I: less sensitive to CPT than the human enzyme
